Laboratory results published in US10221129B2, “Inhibitors of human immunodeficiency virus replication” (ViiV HEALTHCARE UK (NO.5) LIMITED, priority 2015, dated 2019).

What was measured:
[1] = test system: recombinant NL4-3 virus (nef section replaced with Renilla luciferase gene) in MT-2 cells; test: HIV cell culture assay (antiviral activity, luciferase readout); format: cell-based; conditions: Renilla, NL43, MT-2 cells infected for 4-5 days with recombinant NL4-3 Renilla luciferase virus
Protocol: HIV cell culture assay—MT-2 cells, 293T cells and the proviral DNA clone of NL4-3 virus were obtained from the NIH AIDS Research and Reference Reagent Program. MT-2 cells were propagated in RPMI 1640 media supplemented with 10% heat inactivated fetal bovine serum (FBS), 100 jag/ml penicillin G and up to 100 units/mL streptomycin. The 293T cells were propagated in DMEM media supplemented with 10% heat inactivated FBS, 100 μg/mL penicillin G and 100 μg/mL streptomycin. A recombinant NL4-3 proviral clone, in which a section of the nef gene was replaced with the Renilla luciferase gene, was used to make the reference virus used in these studies. The recombinant virus was prepared through transfection of the recombinant NL4-3 proviral clone into 293T cells using Transit-293 Transfection Reagent from Mirus Bio LLC (Madison, Wis.). Supernatant was harvested after 2-3 days and the amount of virus present was titered in MT-2 cells using luciferase enzyme activity as a marker by measuring luciferase enzyme activity. Luciferase was quantitated using the EnduRen Live Cell Substrate from Promega (Madison, Wis.). Antiviral activities of compounds toward the recombinant virus were quantified by measuring luciferase activity in MT-2 cells infected for 4-5 days with the recombinant virus in the presence of serial dilutions of the compound.
(Johnson V A, Byington R T. Infectivity Assay. In Techniques in HIV Research. ed. Aldovini A, Walker B D. 71-76. New York: Stockton Press. 1990).

[2] = Compound cytotoxicity, XTT-based colorimetric assay; format: cell-based; conditions: human, uninfected MT2 cells, day 4, XTT
Protocol: Compound cytotoxicity and the corresponding CC50 values were determined using the same protocol as described in the antiviral assay except that uninfected cells were used. Cytotoxicity was assessed on day 4 in uninfected MT2 cells by using a XTT (2,3-bis[2-Methoxy-4-nitro-5-sulfophenyl]-2H-tetrazolium-5-carboxyanilide inner salt)-based colorimetric assay (Sigma-Aldrich, St Louis, Mo.).

Row | SMILES | EC50 [1] [nM] | CC50 at 4 days [2] [nM]
1 | COc1ccc(N(C)C(=O)[C@H](Cc2ccccc2)NC(=O)NS(=O)(=O)Nc2ccccc2OC(F)(F)F)cc1 [CA-26] | 270 | > 100000
2 | COc1ccc(N(C)C(=O)[C@H](Cc2ccccc2)NC(=O)NS(=O)(=O)Nc2cccc(-c3cnco3)c2)cc1 [CA-27] | 310 | > 100000
3 | COc1ccc(N(C)C(=O)[C@H](Cc2ccccc2)NC(=O)NS(=O)(=O)Nc2ccc(C(F)(F)F)cc2)cc1 [CA-28] | 50 | > 100000
4 | COc1ccc(N(C)C(=O)[C@H](Cc2ccccc2)NC(=O)NS(=O)(=O)Nc2ccc(-c3ccccc3)cc2)cc1 [CA-29] | 3260 | > 33300
5 | COc1ccc(N(C)C(=O)[C@H](Cc2ccccc2)NC(=O)NS(=O)(=O)Nc2cccc(Cl)c2Cl)cc1 [CA-30] | 80 | > 100000
6 | COc1ccc(N(C)C(=O)[C@H](Cc2ccccc2)NC(=O)NS(=O)(=O)Nc2ccccc2-c2ccccc2)cc1 [CA-31] | 1170 | > 33300
7 | COc1ccc(N(C)C(=O)[C@H](Cc2ccccc2)NC(=O)NS(=O)(=O)Nc2ccc(OCc3ccccc3)cc2)cc1 [CA-32] | 980 | > 33300
8 | COc1ccc(N(C)C(=O)[C@H](Cc2ccccc2)NC(=O)NS(=O)(=O)Nc2ccccc2Oc2ccccc2)cc1 [CA-33] | 2040 | > 33300
9 | COc1ccc(N(C)C(=O)[C@H](Cc2ccccc2)NC(=O)NS(=O)(=O)Nc2ccc(OC(F)(F)F)cc2)cc1 [CA-34] | 180 | > 33300
10 | COc1ccc(N(C)C(=O)[C@H](Cc2ccccc2)NC(=O)NS(=O)(=O)Nc2cccc(OC(F)(F)F)c2)cc1 [CA-35] | 380 | 30300
11 | COc1ccc(N(C)C(=O)[C@H](Cc2ccccc2)NC(=O)NS(=O)(=O)Nc2cccc(Oc3ccccc3)c2)cc1 [CA-36] | 200 | > 33300
12 | COc1ccc(N(C)C(=O)[C@H](Cc2ccccc2)NC(=O)NS(=O)(=O)Nc2cccc(-c3ccccc3)c2)cc1 [CA-37] | 1200 | > 33300
13 | COc1ccc(N(C)C(=O)[C@H](Cc2ccccc2)NC(=O)NS(=O)(=O)Nc2ccc(-c3cnco3)cc2)cc1 [CA-38] | 250 | > 100000
14 | COc1ccc(N(C)C(=O)[C@H](Cc2ccccc2)NC(=O)NS(=O)(=O)Nc2ccc(Cc3ccncc3)cc2)cc1 [CA-39] | 330 | > 100000
15 | COc1ccc(N(C)C(=O)[C@H](Cc2ccccc2)NC(=O)NS(=O)(=O)Nc2ccc(OC(C)C)cc2)cc1 [CA-40] | 220 | > 100000
16 | COc1ccc(N(C)C(=O)[C@H](Cc2ccccc2)NC(=O)NS(=O)(=O)Nc2cccc(C(C)(C)C)c2)cc1 [CA-41] | 260 | > 33300
17 | COc1ccc(N(C)C(=O)[C@H](Cc2ccccc2)NC(=O)NS(=O)(=O)Nc2ccccc2NC(C)=O)cc1 [CA-42] | 4120 | > 100000
18 | COc1ccc(N(C)C(=O)[C@H](Cc2ccccc2)NC(=O)NS(=O)(=O)Nc2ccc(S(=O)(=O)N3CCCC3)cc2)cc1 [CA-43] | 300 | > 100000
19 | COc1ccc(N(C)C(=O)[C@H](Cc2ccccc2)NC(=O)NS(=O)(=O)Nc2ccc(S(=O)(=O)N3CCOCC3)cc2)cc1 [CA-44] | 620 | > 100000
20 | COc1ccc(N(C)C(=O)[C@H](Cc2ccccc2)NC(=O)NS(=O)(=O)Nc2ccc(-n3cccc3)cc2)cc1 [CA-45] | 520 | > 33300
21 | COc1ccc(N(C)C(=O)[C@H](Cc2ccccc2)NC(=O)NS(=O)(=O)Nc2cccc(NS(C)(=O)=O)c2)cc1 [CA-46] | 11600 | > 100000
22 | COc1ccc(N(C)C(=O)[C@H](Cc2ccccc2)NC(=O)NS(=O)(=O)Nc2cccc(S(=O)(=O)N3CCOCC3)c2)cc1 [CA-47] | 2140 | > 100000
23 | COc1ccc(N(C)C(=O)[C@H](Cc2ccccc2)NC(=O)NS(=O)(=O)Nc2ccc3c(c2)CS(=O)(=O)C3)cc1 [CA-48] | 260 | > 100000
24 | COc1ccc(N(C)C(=O)[C@H](Cc2ccccc2)NC(=O)NS(=O)(=O)Nc2cc(Cl)cc(Cl)c2)cc1 [CA-49] | 180 | > 33300
25 | COc1ccc(N(C)C(=O)[C@H](Cc2ccccc2)NC(=O)NS(=O)(=O)Nc2ccc(Cl)cc2Cl)cc1 [CA-50] | 110 | > 100000
26 | COc1ccc(N(C)C(=O)[C@H](Cc2ccccc2)NC(=O)NS(=O)(=O)NCC(=O)N2CCCC2)cc1 [CA-51] | 4590 | > 100000

Row | SMILES | EC50 [1] [nM] | CC50 at 4 days [2] [nM]
27 | COc1ccc(N(C)C(=O)[C@H](Cc2ccccc2)NC(=O)NS(=O)(=O)NCC(=O)N(C)C)cc1 [CA-52] | 910 | > 100000
28 | COc1ccc(N(C)C(=O)[C@H](Cc2ccccc2)NC(=O)NS(=O)(=O)N2CCc3cc(OC)cc(C)c32)cc1 [CA-56] | 1310 | > 100000
29 | COc1ccc(N(C)C(=O)[C@H](Cc2ccccc2)NC(=O)NS(=O)(=O)NCC(=O)N2CCN(c3ccccc3)CC2)cc1 [CA-58] | 7450 | > 100000
30 | COc1ccc(N(C)C(=O)[C@H](Cc2ccccc2)NC(=O)NS(=O)(=O)NCC(=O)N2CCOCC2)cc1 [CA-59] | 6140 | > 100000
31 | COc1ccc(N(C)C(=O)[C@H](Cc2ccccc2)NC(=O)NS(=O)(=O)Nc2ccccc2C(F)(F)F)cc1 [CA-60] | 870 | > 100000
32 | COc1ccc(N(C)C(=O)[C@H](Cc2ccccc2)NC(=O)NS(=O)(=O)n2ccc3ccncc32)cc1 [CA-61] | 400 | > 100000
33 | COc1ccc(N(C)C(=O)[C@H](Cc2ccccc2)NC(=O)NS(=O)(=O)n2c(C)cc3ccncc32)cc1 [CA-62] | 3690 | > 100000
34 | COc1ccc(N(C)C(=O)[C@H](Cc2ccccc2)NC(=O)NS(=O)(=O)n2nc(-c3ccccc3)c3ccccc32)cc1 [CA-63] | 30200 | 73700
35 | COc1ccc(N(C)C(=O)[C@H](Cc2ccccc2)NC(=O)NS(=O)(=O)n2c(C)cc3ccc(OC)cc32)cc1 [CA-64] | 440 | 62400
36 | COc1ccc(N(C)C(=O)[C@H](Cc2ccccc2)NC(=O)NS(=O)(=O)n2c(C)cc3cc(F)c(O)cc32)cc1 [CA-65] | 4040 | > 100000
37 | COc1ccc(N(C)C(=O)[C@H](Cc2ccccc2)NC(=O)NS(=O)(=O)n2ncc3c(Cl)nc(Cl)cc32)cc1 [CA-66] | 14600 | > 100000
38 | CN(C(=O)[C@H](Cc1cc(F)cc(F)c1)NC(=O)NS(=O)(=O)N(C)c1ccccn1)c1ccc2scnc2c1 [CA-113] | 140 | > 100000
39 | CN(C(=O)[C@H](Cc1cc(F)cc(F)c1)NC(=O)NS(=O)(=O)Nc1ccccn1)c1ccc2scnc2c1 [CA-114] | 100 | > 100000
40 | CN(C(=O)[C@H](Cc1cc(F)cc(F)c1)NC(=O)NS(=O)(=O)Nc1ccccc1)c1ccc2scnc2c1 [CA-115] | 60 | > 100000
41 | CN(C(=O)[C@H](Cc1cc(F)cc(F)c1)NC(=O)NS(=O)(=O)Nc1cccc(Cl)c1)c1ccc2scnc2c1 [CA-116] | 60 | 73200
42 | CN(C(=O)[C@H](Cc1cc(F)cc(F)c1)NC(=O)NS(=O)(=O)N(C)c1ccccc1F)c1ccc2scnc2c1 [CA-117] | 120 | > 100000
43 | COc1ccc(N(C)S(=O)(=O)NC(=O)N[C@@H](Cc2cc(F)cc(F)c2)C(=O)N(C)c2ccc3scnc3c2)cn1 [CA-118] | 160 | > 100000
44 | COc1cccc(N(C)S(=O)(=O)NC(=O)N[C@@H](Cc2cc(F)cc(F)c2)C(=O)N(C)c2ccc3scnc3c2)c1 [CA-119] | 60 | > 33300
45 | CN(C(=O)[C@H](Cc1cc(F)cc(F)c1)NC(=O)NS(=O)(=O)N(C)c1cccnc1)c1ccc2scnc2c1 [CA-120] | 270 | > 100000
46 | CCN(c1cccnc1)S(=O)(=O)NC(=O)N[C@@H](Cc1cc(F)cc(F)c1)C(=O)N(C)c1ccc2scnc2c1 [CA-121] | 990 | 7300
47 | CN1CCN(S(=O)(=O)NC(=O)N[C@@H](Cc2cc(F)cc(F)c2)C(=O)N(C)c2ccc3scnc3c2)CC1 [CA-122] | 280 | > 33300
48 | CN(C(=O)[C@H](Cc1cc(F)cc(F)c1)NC(=O)NS(=O)(=O)Nc1cccnc1)c1ccc2scnc2c1 [CA-123] | 160 | > 100000
49 | CCNS(=O)(=O)NC(=O)N[C@@H](Cc1cc(F)cc(F)c1)C(=O)N(C)c1ccc2scnc2c1 [CA-124] | 110 | > 100000
50 | CN(C(=O)[C@H](Cc1cc(F)cc(F)c1)NC(=O)NS(=O)(=O)N(C)CCO)c1ccc2scnc2c1 [CA-125] | 160 | > 100000
51 | CN(C(=O)[C@H](Cc1cc(F)cc(F)c1)NC(=O)NS(=O)(=O)NCc1ccccc1)c1ccc2scnc2c1 [CA-126] | 520 | > 100000
